One assay relates to HIV-2 (strain ROD). The assay is described as follows: Anti-HIV assay, inhibition of HIV-2(ROD)-induced cytopathicity in CEM cells. It is filed as cell-based. The note with it: virus-induced cytopathicity, mean ±SD. Background: Damage to the host cells serves as the signal in cytopathic effect assays.
The test system of the next assay is VSVpp. It is filed as cell-based, VSV. The note with it: read-out: EC50 VSVpp (C8166).
In another assay the test system is HCVpp (1b). The experiment in a line: HCV pseudoparticle HCVpp (1b) entry into Huh7 cells, luciferase activity. It is filed as cell-based. The note with it: mean ±SD. The source says:
(§1) Production of pseudoparticles (HCVpp) and cell culture infection. To produce HCVpp, 293T cells (1.2×10^6) were lipofected at a 1:2 ratio of a NLluc^+env^− reporter vector and a vector expressing the HCV envelope glycoproteins as previously described (Bertaux and Dragic, 2006). HCV envelope glycoprotein-encoding sequences corresponding to subtypes 1b and 2b were PCR-amplified from patient sera starting from the last 60 amino acids in the Core to the end of glycoprotein E2. Supernatants were collected 48 hours post lipofection, filtered (0.45μ) and stored at −80° C. until further use. HCVpp were tested by infection of Huh7 cells (5×10^4) and measuring luciferase activity (relative light units, RLU) 48 hours post infection using the Luciferase assay system according to the manufacturer's instructions.
(§2) To measure inhibition of HCVpp (1a,1b,2b) entry into Huh7 cells by CBA and polyanions, an essentially similar procedure has been used as described above for infectious HCVcc (2a).
(§3) In order to reveal whether CBA also act at the level of HCV entry, we evaluated their ability to inhibit entry of pseudoparticles comprising the HCV envelope glycoproteins E1 and E2 into Huh-7 cells.

In assay [1] the test system is HIV-1(IIIB) capture by Raji/DC-SIGN cells. The experiment in a line: Inhibition of HIV-1 capture by Raji/DC-SIGN cells (p24 Ag). It is filed as cell-based. The note with it: HIV-1 exposed 30 min to compound before addition to cells. The procedure:
Inhibition of HIV-1 capture by Raji/DC-SIGN cells. HIV-1 particles (2.2 μg p24/ml) were exposed to serial dilutions of the test compounds (400 μl) for 30 min. Then, the drug-exposed virus suspensions (500 μl) were mixed with Raji/DC-SIGN cell suspensions (500 μl; 10^6 cells) for 60 min at 37° C. after which the cells were thoroughly washed twice with 40 ml culture medium as described above. […] The Raji/DC-SIGN cell cultures were then analysed for HIV-1 p24 Ag content.
Raji B-lymphocyte cells were modified to express DC-SIGN at their cell surface (Geijtenbeek et al., 2000; Wu et al., 2004). When Raji/DC-SIGN cells were exposed to cell-free HIV-1(IIIB) particles, they were able to efficiently capture the virus particles as evidenced by retention of p24 antigen of HIV-1 on the Raji/DC-SIGN cells (˜1200 pg p24). […] The CBA could prevent >90% of HIV-1 capture at concentrations >2 μM for GNA, HHA and CA; >10 μM for UDA and >60 μM for PRM-A.

For a further assay, the system named is HCVpp (1a). The experiment in a line: HCV pseudoparticle HCVpp (1a) entry into Huh7 cells, luciferase activity. Type of assay: cell-based. Conditions: for EC50: Huh7 cells, luciferase activity, mean ±SD.
From the text: as §1, §2, §3

The test system of another assay is HIV-1 (strain IIIB). Type of assay: cell-based. The note with it: for EC50: CEM cells.
A further assay relates to HCVpp (2b). The assay is described as follows: HCV pseudoparticle HCVpp (2b) entry into Huh7 cells, luciferase activity. Conditions: mean ±SD. It is filed as cell-based.
From the text: as §1, §2, §3

For another assay, the system named is Influenza A H3N2. Type of assay: cell-based.
A further assay concerns Influenza B. It is filed as cell-based. The note with it: MDCK cell cultures.
In a further assay the test system is Influenza A H1N1. It is filed as cell-based.
The subject of another assay is HCVcc (subtype 2a). The assay is described as follows: Infectious HCVcc (subtype 2a) infection of Huh7 cells, luciferase activity. Type of assay: cell-based, HCV. The procedure: Huh7 cells (2×10^4) were plated and 24 hours later infected with supernatants containing infectious HCVcc pre-mixed with serial dilutions of lectins or polyanions. Mannan (2.5 mg/ml; Sigma) was added to some of the mixtures prior to Huh7 infection. After 24 hours post infection, the mixture of virus and test compounds was replaced by fresh medium, cells were brought at 37° C. and luciferase activity was measured in the cell lysates 24 hours later.
The inhibitory activities of carbohydrate binding small molecules and agents against infectious HIV-1 (strain IIIB), HIV-2 (strain ROD) and HCVcc (subtype 2a) were evaluated in human T lymphocyte cells (CEM) and human hepatocellular carcinoma cells (Huh-7), respectively (Table 1). […] The effect of mannan on the antiviral activity of the CBA was investigated.

The subject of a further assay is HUT-78/HIV + Sup T-1. The assay is described as follows: Giant cell formation in a co-cultivation assay HUT-78/HIV + Sup T-1. Type of assay: cell-based.
The next assay concerns HIV-1 (NL4.3). The experiment in a line: Anti-HIV activity of Alcian Blue against HIV-1 (NL4.3) in CEM cells.
In assay [2] the test system is AB-resistant HIV-1 (N44.3), glycan deletions N461P and N635K. The experiment in a line: Anti-HIV activity against AB-resistant HIV-1 strain in CEM cells. The note with it: AB-resistant virus strain (N461P, N635K). Type of assay: cell-based.
The mark [3] stands for this setting: in the presence of mannan 2.5 mg/ml, read-out: HIV-1 EC50 +Mannan (2.5 mg/ml).
The mark [4] stands for this setting: virus-induced cytopathicity, mean ±SD, read-out: EC50 HIV-1(IIIB) (CEM).
Where [5] appears, read: without mannan (Table 3), read-out: HIV-1 EC50 As such.
Where [6] appears, read: in the presence of mannan 2.5 mg/ml, read-out: HCV(2a) EC50 +Mannan (2.5 mg/ml).
Where [7] appears, read: luciferase activity, mean ±SD, read-out: EC50 HCV (2a) (Huh7).
Setting [8] is: without mannan (Table 3), read-out: HCV(2a) EC50 As such.

Values after ≈ are worked out from the molar mass of the structure shown. Where two headings read alike, the source gives them in different places. Marks after values point to notes of the source that are not given here.

Protocol for HIV-1 (NL4.3): Compounds were tested against HIV-1 strains (HE, NL43, MN, IIIB), HIV-2 strains (ROD, EHO, RF), and SIV (MAC251) for inhibition of virus-induced cytopathicity in MT-4 cells (or CEM or C8166 or Molt4/C8 cells), using the colorimetric test described by Pauwels et al. in J. Virol. […] For example microtiter 96-well plates containing ˜3×10^5 CEM cells/ml, infected with 100 CClD50 of HIV per ml and containing appropriate dilutions of the test compounds were used.
A rapid and automated assay procedure was used for the in vitro evaluation of anti-HIV agents. An HTLV-1 transformed T4-cell line MT-4, which was previously shown to be highly susceptible to and permissive for HIV infection, can serve as the target cell line. Inhibition of the HIV-induced cytopathogenic effect was used as the end point. The viability of both HIV- and mock-infected cells was also assessed spectrophotometrically via in situ reduction of 3(4,5-dimethylthiazol-2-yl)-2,5-diphenyltetrazolium bromide (MTT). Methods comprise for example the microscopic examination of CEM, C8166 or Molt4/C8 giant (syncytium) cell formation, after 4 to 5 days of incubation at 37° C. in a CO2-controlled humidified atmosphere. […] The percent protection achieved by the compound in HIV-infected cells is calculated by the following formula:

For the molecule `CN[C@@H]1[C@H](O[C@@H]2OC[C@@H](O)[C@H](O)[C@H]2O)[C@@H](O)[C@H](O[C@H]2c3cc(C)c(C(=O)N[C@H](C)C(=O)O)c(O)c3-c3c(cc4c(c3O)C(=O)c3cc(OC)cc(O)c3C4=O)[C@@H]2O)O[C@@H]1C` [PRM-A, pradimicin A, reference compound], the EC50 with HIV-2 (strain ROD) was 1.8 µM; with VSVpp, more than 60 µM; in the assay on HCVpp (1b), 1.67 ± 0.06 µM; with HCVpp (1a), 1.17 ± 0.31 µM; with HIV-1 (strain IIIB) (setting [3]), 40 ± 13 µM; with HIV-1 (strain IIIB) (setting [4]), 3.36 ± 1.2 µM. The EC50 in the assay on HIV-1 (strain IIIB) (setting [5]) is 5.3 ± 0.78 µM; in the assay with HCVpp (2b) it was 0.924 ± 0.156 µM; in the assay on HCVcc (subtype 2a) (setting [6]), more than 30 µM; with HCVcc (subtype 2a) (setting [7]), 3.61 ± 0.78 µM; with HCVcc (subtype 2a) (setting [8]) it was 3.61 ± 0.78 µM. Also, the “concentration preventing >90% of HIV-1 capture by Raji/DC-SIGN cells” value in [1] is more than 60 µM. The “EC50 Influenza A H3N2” value in the assay on Influenza A H3N2 worked out at 1.6 mg/L (≈ 1.9 µM). For the same molecule, in the assay on Influenza B, the “EC50 Influenza B” value worked out at 2.4 mg/L (≈ 2.85 µM). Further, in the assay with Influenza A H1N1, the “EC50 Influenza A H1N1” value came out at 1.9 mg/L (≈ 2.26 µM).

Turning to Alcian Blue, the “EC50 HUT-78/HIV + Sup T-1” value with HUT-78/HIV + Sup T-1 is 4.5 ± 1.5^c μg/ml. The “EC50 HIV-1 (NL4.3) (CEM)” value in the assay with HIV-1 (NL4.3) was 5 ± 1 mg/L. Besides, the “EC50 HCVpp (1a)” value in the assay with HCVpp (1a) (Alcian Blue table) is given as 30^d μg/ml. Moreover, the “EC50 HIV-1R (N44.3) (CEM)” value in assay [2] was more than 50 mg/L. In addition, the “EC50 Influenza A H3N2” value in the assay on Influenza A H3N2 is more than 20 mg/L. Also, in the assay on Influenza B, the “EC50 Influenza B” value was more than 20 mg/L. In the assay on Influenza A H1N1, the “EC50 Influenza A H1N1” value was more than 20 mg/L.

B1: UDA: GlcNAc-specific plant lectin from Urtica dioica (stinging nettle) (protein, UniProt P11218 24-372, looked up)
Lectin/endochitinase 1: QRCGSQGGGGTCPALWCCSIWGWCGDSEPYCGRTCENKCWSGERSDHRCGAAVGNPPCGQDRCCSVHGWCGGGNDYCSGSKCQYRCSSSVRGPRVALSGNSTANSIGNVVVTEPLFDQMFSHRKDCPSQGFYSYHSFLVAAESFPAFGTIGDVATRKREVAAFLAHISQATSGERSDVENPHAWGLCHINTTTVTENDFCTSSDWPCAAGKKYSPRGPIQLTHNFNYGLAGQAIGEDLIQNPDLVEKDPIISFKTALWFWMSQHDNKPSCHDIVLNANSAANRIPNKGVIGNIISRAFGHDDFAVRSSSIGFYKRYCDMLGVSYGHDLKYWFDNTPSSEFQRIQMRVAA
In the case of B1, the EC50 was 0.391 ± 0.106 µM with HIV-2 (strain ROD); more than 11 µM in the assay on VSVpp; 0.019 ± 0.022 µM in the assay on HCVpp (1b); 0.032 ± 0.015 µM in the assay on HCVpp (1a); 0.459 µM in the assay on HIV-1 (strain IIIB) (setting [3]); 0.14 ± 0.04 µM with HIV-1 (strain IIIB) (setting [4]). The EC50 in the assay with HIV-1 (strain IIIB) (setting [5]) stood at 0.149 ± 0.04 µM; in the assay on HCVpp (2b) it was 0.05 ± 0.054 µM; with HCVcc (subtype 2a) (setting [6]) it was 0.56 ± 0.108 µM; in the assay on HCVcc (subtype 2a) (setting [7]), 0.176 ± 0.029 µM; in the assay on HCVcc (subtype 2a) (setting [8]), 0.176 ± 0.029 µM. The “concentration preventing >90% of HIV-1 capture by Raji/DC-SIGN cells” value in [1] was more than 10 µM. For the same molecule, the “decrease of antiviral activity against HIV-1 in the presence of mannan” value in the assay on HIV-1 (strain IIIB) (mannan) is recorded as 3 fold. Also, the “EC50 Influenza A H3N2” value in the assay with Influenza A H3N2 was determined as 0.99 mg/L. The “EC50 Influenza A H1N1” value in the assay on Influenza A H1N1 turned out to be 4.1 mg/L.

The record behind these values is US8193157B2, “Antiviral therapies” (priority 2005, dated 2012).
